# Legend:
# Assay in all cases: cells
# Calu-6 = type: functional, cell-based, Homo sapiens; details: Homo sapiens, Calu-6;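 also: growth of human Calu-6 cells, read out by a cell viability assay, IC50 marking inhibition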
# Description: SANGER: Inhibition of human Calu-6 cell growth in a cell viability assay.
# NCI-H510A = type: functional, cell-based; details: Homo sapiens;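 also: growth inhibition of NCI-H510A cells, read out with a cell viability assay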
# HOS = type: functional, cell-based, Homo sapiens; details: Homo sapiens, HOS;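 also: growth inhibition of human HOS cells, read out with a cell viability assay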
# Description: SANGER: Inhibition of human HOS cell growth in a cell viability assay.
# HCC1187 = type: functional, cell-based, Homo sapiens; details: Homo sapiens, HCC1187;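 also: growth inhibition of HCC1187 cells, read out with a cell viability assay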
# Description: SANGER: Inhibition of human HCC1187 cell growth in a cell viability assay.
# IGROV-1 = type: functional, cell-based, Homo sapiens; details: Homo sapiens, IGROV-1;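 also: reduction of IGROV-1 cell growth, read out with a viability assay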
# Description: SANGER: Inhibition of human IGROV-1 cell growth in a cell viability assay.
# 769-P = type: functional, cell-based, Homo sapiens; details: Homo sapiens, 769-P
# Description: SANGER: Inhibition of human 769-P cell growth in a cell viability assay.
# A673 = type: functional, cell-based, Homo sapiens; details: Homo sapiens, A673;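 also: growth inhibition of human A673 cells, read out through a cell viability assay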
# Description: SANGER: Inhibition of human A673 cell growth in a cell viability assay.
# COLO-680N = type: functional, cell-based, Homo sapiens; details: Homo sapiens, COLO-680N;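 also: cell viability assay used to measure inhibition of COLO-680N cell growth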
# Description: SANGER: Inhibition of human COLO-680N cell growth in a cell viability assay.
# NCI-H810 = type: functional, cell-based, Homo sapiens; details: Homo sapiens, NCI-H810;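 also: IC50 reflects inhibition of cancer cell line growth, read out with a cell viability assay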
# Description: SANGER: Inhibition of human NCI-H810 cell growth in a cell viability assay.
# NCI-H596 = type: functional, cell-based, Homo sapiens; details: Homo sapiens, NCI-H596;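 also: growth inhibition of NCI-H596 cells, read out with a cell viability assay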
# Description: SANGER: Inhibition of human NCI-H596 cell growth in a cell viability assay.
# MG-63 = type: functional, cell-based, Homo sapiens; details: Homo sapiens, MG-63;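 also: growth inhibition of human MG-63 cells, read out with a cell viability assay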
# Description: SANGER: Inhibition of human MG-63 cell growth in a cell viability assay.
# MKN-7 = type: functional, cell-based, Homo sapiens; details: Homo sapiens, MKN-7;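 also: growth inhibition of MKN-7 cells, read out with a cell viability assay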
# Description: SANGER: Inhibition of human MKN7 cell growth in a cell viability assay.
# OCUB-M = type: functional, cell-based, Homo sapiens; details: Homo sapiens, OCUB-M;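 also: growth inhibition of the cancer cell line, read out through a cell viability assay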
# Description: SANGER: Inhibition of human OCUB-M cell growth in a cell viability assay.
# KY821 = type: functional, cell-based; details: Homo sapiens;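 also: growth inhibition of human KY821 cells, read out by a cell viability assay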
# NCI-H2452 = type: functional, cell-based, Homo sapiens; details: Homo sapiens, NCI-H2452;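 also: growth inhibition of NCI-H2452 cells, read out with a cell viability assay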
# Description: SANGER: Inhibition of human NCI-H2452 cell growth in a cell viability assay.
# ASPC1 = type: functional, cell-based, Homo sapiens; details: Homo sapiens, ASPC1;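 also: growth inhibition of AsPC-1 cells, read out with a cell viability assay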
# Description: SANGER: Inhibition of human AsPC-1 cell growth in a cell viability assay.
# A498 = type: functional, cell-based, Homo sapiens; details: Homo sapiens, A498;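 also: growth inhibition of human A498 cells, read out with a cell viability assay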
# Description: SANGER: Inhibition of human A498 cell growth in a cell viability assay.
# A2058 = type: functional, cell-based; details: Homo sapiens;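 also: reduction of A2058 cell growth, read out with a viability assay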
# Description: SANGER: Inhibition of human A2058 cell growth in a cell viability assay.
# GCIY = type: functional, cell-based, Homo sapiens; details: Homo sapiens, GCIY;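 also: growth inhibition of the human GCIY cell line, read out by a cell viability assay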
# Description: SANGER: Inhibition of human GCIY cell growth in a cell viability assay.
# ML-2 = type: functional, cell-based; details: Homo sapiens;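 also: growth inhibition of ML-2 cells, measured with a cell viability readout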
# Description: SANGER: Inhibition of human ML-2 cell growth in a cell viability assay.
# HGC-27 = type: functional, cell-based, Homo sapiens; details: Homo sapiens, HGC-27;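 also: growth inhibition of human HGC-27 cells, read out in a cell viability assay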
# Description: SANGER: Inhibition of human HGC-27 cell growth in a cell viability assay.
# SW948 = type: functional, cell-based, Homo sapiens; details: Homo sapiens, SW948;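 also: growth inhibition of SW948 cells, read out with a cell viability assay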
# Description: SANGER: Inhibition of human SW948 cell growth in a cell viability assay.
# YAPC = type: functional, cell-based, Homo sapiens; details: Homo sapiens, YAPC;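 also: growth inhibition of YAPC cells, measured with a cell viability assay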
# Description: SANGER: Inhibition of human YAPC cell growth in a cell viability assay.
# HCE-4 = type: functional, cell-based, Homo sapiens; details: Homo sapiens, HCE-4;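 also: cell viability assay measuring inhibition of growth in the human HCE-4 cell line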
# Description: SANGER: Inhibition of human HCE-4 cell growth in a cell viability assay.
# NCI-H2405 = type: functional, cell-based, Homo sapiens; details: Homo sapiens, NCI-H2405;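 also: growth inhibition of the human cell line, read out with a cell viability assay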
# Description: SANGER: Inhibition of human NCI-H2405 cell growth in a cell viability assay.
# HSC-2 = type: functional, cell-based, Homo sapiens; details: Homo sapiens, HSC-2;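 also: growth inhibition of human HSC-2 cells, read out by a cell viability assay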
# Description: SANGER: Inhibition of human HSC-2 cell growth in a cell viability assay.
# LB373-MEL-D = type: functional, cell-based, Homo sapiens; details: Homo sapiens, LB373-MEL-D;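 also: growth inhibition of the cell line, read out in a cell viability assay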
# Description: SANGER: Inhibition of human LB373-MEL-D cell growth in a cell viability assay.
# AU565 = type: functional, cell-based, Homo sapiens; details: Homo sapiens, AU565;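 also: cell viability assay measuring growth inhibition of human AU565 cells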
# Description: SANGER: Inhibition of human AU565 cell growth in a cell viability assay.
# NCI-H1648 = type: functional, cell-based, Homo sapiens; details: Homo sapiens, NCI-H1648;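 also: cell viability assay measuring inhibition of NCI-H1648 cell growth, from the Sanger screening data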
# Description: SANGER: Inhibition of human NCI-H1648 cell growth in a cell viability assay.
# DoTc2-4510 = type: functional, cell-based, Homo sapiens; details: Homo sapiens, DoTc2-4510
# NCI-H2170 = type: functional, cell-based, Homo sapiens; details: Homo sapiens, NCI-H2170;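 also: cell viability assay measuring growth inhibition of human NCI-H2170 cancer cells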
# Description: SANGER: Inhibition of human NCI-H2170 cell growth in a cell viability assay.
# OAW-42 = type: functional, cell-based, Homo sapiens; details: Homo sapiens, OAW-42;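 also: growth inhibition of OAW-42 cells, read out with a cell viability assay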
# Description: SANGER: Inhibition of human OAW-42 cell growth in a cell viability assay.
# PFSK-1 = type: functional, cell-based, Homo sapiens; details: Homo sapiens, PFSK-1;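 also: cell viability assay measuring how strongly compounds suppress growth of human PFSK-1 cells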
# Description: SANGER: Inhibition of human PFSK-1 cell growth in a cell viability assay.
# LU-134-A = type: functional, cell-based; details: Homo sapiens
# Description: SANGER: Inhibition of human LU-134-A cell growth in a cell viability assay.
# J-RT3-T3-5 = type: functional, cell-based; details: Homo sapiens;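 also: cell viability assay measuring growth inhibition of human J-RT3-T3-5 cells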
# Description: SANGER: Inhibition of human J-RT3-T3-5 cell growth in a cell viability assay.
# LU-99A = type: functional, cell-based, Homo sapiens; details: Homo sapiens, LU-99A;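 also: growth inhibition of LU-99A cells, read out with a cell viability assay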
# Description: SANGER: Inhibition of human LU-99A cell growth in a cell viability assay.
# NCI-H2052 = type: functional, cell-based, Homo sapiens; details: Homo sapiens, NCI-H2052;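 also: growth inhibition of NCI-H2052 cells, read out with a cell viability assay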
# Description: SANGER: Inhibition of human NCI-H2052 cell growth in a cell viability assay.
# NCI-H1770 = type: functional, cell-based; details: Homo sapiens;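 also: growth inhibition of NCI-H1770 cells determined with a viability readout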
# Description: SANGER: Inhibition of human NCI-H1770 cell growth in a cell viability assay.
# A704 = type: functional, cell-based, Homo sapiens; details: Homo sapiens, A704;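 also: growth inhibition of human A704 cells, read out with a cell viability assay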
# Description: SANGER: Inhibition of human A704 cell growth in a cell viability assay.
# CAL-12T = type: functional, cell-based, Homo sapiens; details: Homo sapiens, CAL-12T;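 also: growth inhibition of human CAL-12T cells, read out with a cell viability assay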
# Description: SANGER: Inhibition of human CAL-12T cell growth in a cell viability assay.
# ES1 = type: functional, cell-based, Homo sapiens; details: Homo sapiens, ES1;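 also: growth inhibition of ES1 cells, read out with a cell viability assay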
# Description: SANGER: Inhibition of human ES1 cell growth in a cell viability assay.
# T98G = type: functional, cell-based, Homo sapiens; details: Homo sapiens, T98G;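 also: growth inhibition of T98G cells, read out by a cell viability assay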
# Description: SANGER: Inhibition of human T98G cell growth in a cell viability assay.
# A253 cell line = type: functional, cell-based, Homo sapiens; details: Homo sapiens, A253;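 also: growth inhibition of A253 cells, read out with a cell viability assay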
# Description: SANGER: Inhibition of human A253 cell growth in a cell viability assay.
# ES8 = type: functional, cell-based, Homo sapiens; details: Homo sapiens, ES8;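 also: growth inhibition of human ES8 cells, read out with a cell viability assay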
# Description: SANGER: Inhibition of human ES8 cell growth in a cell viability assay.
# NKM-1 = type: functional, cell-based; details: Homo sapiens;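 also: growth inhibition of NKM-1 cells, read out with a cell viability assay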
# G-401 = type: functional, cell-based, Homo sapiens; details: Homo sapiens, G-401
# Description: SANGER: Inhibition of human G-401 cell growth in a cell viability assay.
# RT-112 = type: functional, cell-based, Homo sapiens; details: Homo sapiens, RT-112
# NCI-H441 = type: functional, cell-based; details: Homo sapiens;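 also: growth inhibition of NCI-H441 cells, read out with a cell viability assay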
# Description: SANGER: Inhibition of human NCI-H441 cell growth in a cell viability assay.
# 647-V = type: functional, cell-based, Homo sapiens; details: Homo sapiens, 647-V;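 also: growth inhibition of 647-V cells, read out with a cell viability assay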
# Description: SANGER: Inhibition of human 647-V cell growth in a cell viability assay.
# YKG-1 = type: functional, cell-based, Homo sapiens; details: Homo sapiens, YKG-1;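 also: cell growth inhibition, read out with a viability assay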
# Description: SANGER: Inhibition of human YKG-1 cell growth in a cell viability assay.
# RS4-11 = type: functional, cell-based; details: Homo sapiens;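 also: growth inhibition of RS4-11 cells, read out by a cell viability assay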
# Description: SANGER: Inhibition of human RS4-11 cell growth in a cell viability assay.
structure (smiles),measurement,setting,value
Cc1ccc(Nc2nccc(N(C)c3ccc4c(C)n(C)nc4c3)n2)cc1S(N)(=O)=O [PAZOPANIB],IC50,Calu-6,> 8 µM
same,IC50,NCI-H510A,> 8 µM
same,IC50,HOS,> 8 µM
same,IC50,HCC1187,> 8 µM
same,IC50,IGROV-1,3250 nM
same,IC50,769-P,> 8 µM
same,IC50,A673,> 8 µM
same,IC50,COLO-680N,> 8 µM
same,IC50,NCI-H810,6.31 µM
same,IC50,NCI-H596,> 8 µM
same,IC50,MG-63,1000 nM
same,IC50,MKN-7,> 8 µM
same,IC50,OCUB-M,3.31 µM
same,IC50,KY821,> 8 µM
same,IC50,NCI-H2452,> 8 µM
same,IC50,ASPC1,> 8 µM
same,IC50,A498,> 8 µM
same,IC50,A2058,> 8 µM
same,IC50,GCIY,> 8 µM
same,IC50,ML-2,> 8000 nM
same,IC50,HGC-27,6.2 µM
same,IC50,SW948,> 8 µM
same,IC50,YAPC,> 8 µM
same,IC50,HCE-4,> 8 µM
same,IC50,NCI-H2405,> 8 µM
same,IC50,HSC-2,> 8000 nM
same,IC50,LB373-MEL-D,> 8 µM
same,IC50,AU565,> 8 µM
same,IC50,NCI-H1648,> 8 µM
same,IC50,DoTc2-4510,> 8 µM
same,IC50,NCI-H2170,> 8 µM
same,IC50,OAW-42,> 8 µM
same,IC50,PFSK-1,> 8 µM
same,IC50,LU-134-A,> 8 µM
same,IC50,J-RT3-T3-5,> 8 µM
same,IC50,LU-99A,> 8 µM
same,IC50,NCI-H2052,> 8 µM
same,IC50,NCI-H1770,> 8 µM
same,IC50,A704,1600 nM
same,IC50,CAL-12T,> 8 µM
same,IC50,ES1,> 8 µM
same,IC50,T98G,> 8 µM
same,IC50,A253 cell line,> 8 µM
same,IC50,ES8,> 8 µM
same,IC50,NKM-1,> 8000 nM
same,IC50,G-401,1460 nM
same,IC50,RT-112,1100 nM
same,IC50,NCI-H441,> 8 µM
same,IC50,647-V,> 8 µM
same,IC50,YKG-1,> 8 µM
same,IC50,RS4-11,> 8 µM
CN(c1ncccc1CNc1nc(Nc2ccc3c(c2)CC(=O)N3)ncc1C(F)(F)F)S(C)(=O)=O [PF-00562271],IC50,Calu-6,> 2.56 µM
same,IC50,NCI-H510A,> 2.56 µM
same,IC50,HOS,> 2.56 µM
same,IC50,HCC1187,> 2.56 µM
same,IC50,IGROV-1,810 nM
same,IC50,769-P,> 2.56 µM
same,IC50,A673,> 2.56 µM
same,IC50,COLO-680N,> 2.56 µM
same,IC50,NCI-H810,1.11 µM
same,IC50,NCI-H596,> 2.56 µM
same,IC50,MG-63,806 nM
same,IC50,MKN-7,> 2.56 µM
same,IC50,OCUB-M,> 2.56 µM
same,IC50,KY821,> 2.56 µM
same,IC50,NCI-H2452,> 2.56 µM
same,IC50,ASPC1,> 2.56 µM
same,IC50,A498,> 2.56 µM
same,IC50,A2058,> 2.56 µM
same,IC50,GCIY,> 2.56 µM
same,IC50,ML-2,1670 nM
same,IC50,HGC-27,> 2.56 µM
same,IC50,SW948,> 2.56 µM
same,IC50,YAPC,> 2.56 µM
same,IC50,HCE-4,> 2.56 µM
same,IC50,NCI-H2405,> 2.56 µM
same,IC50,HSC-2,1540 nM
same,IC50,LB373-MEL-D,> 2.56 µM
same,IC50,AU565,> 2.56 µM
same,IC50,NCI-H1648,> 2.56 µM
same,IC50,DoTc2-4510,> 2.56 µM
same,IC50,NCI-H2170,> 2.56 µM
same,IC50,OAW-42,> 2.56 µM
same,IC50,PFSK-1,> 2.56 µM
same,IC50,LU-134-A,> 2.56 µM
same,IC50,J-RT3-T3-5,> 2.56 µM
same,IC50,LU-99A,> 2.56 µM
same,IC50,NCI-H2052,> 2.56 µM
same,IC50,NCI-H1770,> 2.56 µM
same,IC50,A704,> 2560 nM
same,IC50,CAL-12T,> 2.56 µM
same,IC50,ES1,> 2.56 µM
same,IC50,T98G,> 2.56 µM
same,IC50,A253 cell line,> 2.56 µM
same,IC50,ES8,> 2.56 µM
same,IC50,NKM-1,1280 nM
same,IC50,G-401,> 2560 nM
same,IC50,RT-112,985 nM
same,IC50,NCI-H441,> 2.56 µM
same,IC50,647-V,> 2.56 µM
same,IC50,YKG-1,> 2.56 µM
same,IC50,RS4-11,> 2.56 µM

# — ChEMBL document CHEMBL1201861, “Genomics of Drug Sensitity in Cancer screening data, Wellcome Trust Sanger Institute”
